According to patent publication US8415342B2, “Besifloxacin ophthalmic composition for the treatment or control of infection” (Bausch & Lomb Incorporated, priority 2008, dated 2013):
Converted amounts (≈) assume the structure as drawn. “And” between values parts separate entries of the source, which are not always exact repeats. Identical values can stand only once. Like-named read-outs stand apart in the source and are kept apart here.

How the values were obtained:
S. pneumoniae DNA gyrase = S. pneumoniae DNA gyrase (Streptococcus pneumoniae serotype 4, UniProt P0A4L9+P72524); assay: Cleavable complex stimulation (CC25), DNA gyrase; format: biochemical; details: S. pneumoniae enzymes; concentration that produces 25% linearization of the DNA
E. coli topoisomerase IV = E. coli topoisomerase IV (Escherichia coli, UniProt P0AFI2+P20083); assay: Catalytic inhibition of purified topoisomerase IV; format: biochemical; details: IC50 Topo IV, E. coli enzymes
bacterial conjunctivitis [1] = assay: Study 433: besifloxacin ophthalmic suspension vs vehicle, TID 5 days; format: in vivo, human; details: N = 199; for Clinical Resolution (2 indices), No / Clinical Resolution (2 indices), Yes: mITT culture confirmed as randomized; for Microbial Eradication, No / Microbial Eradication, Yes: missing or discontinued imputed as no
E. coli DNA gyrase = E. coli DNA gyrase (Escherichia coli, UniProt P0AES4+P0AES6); assay: Catalytic inhibition of purified DNA gyrase; format: biochemical
bacterial conjunctivitis [2] = assay: Study 434: besifloxacin ophthalmic suspension vs Vigamox, TID 5 days; format: in vivo, human; details: for Clinical Resolution (2 indices), No / Clinical Resolution (2 indices), Yes: mITT culture-confirmed as treated; for Microbial Eradication, No / Microbial Eradication, Yes: missing or discontinued imputed as no, as treated
[3] = system: S. pneumoniae topoisomerase mutants; assay: MIC against defined topoisomerase mutants; format: cell-based; details: Streptococcus pneumoniae
[4] = Study 424: tear fluid pharmacokinetics after single topical ocular instillation in healthy volunteers; format: in vivo, human
Description: This study was conducted to evaluate the ocular PK of besifloxacin in tear fluid after a single instillation of besifloxacin ophthalmic suspension, 0.6%, in both eyes of healthy volunteers and to compare the actual besifloxacin exposure to MICs of the most prevalent pathogens associated with bacterial conjunctivitis.
Healthy volunteers received a single instillation (37 μL by pipette) of besifloxacin ophthalmic suspension, 0.6%, in the conjunctival sac of each eye. A single tear sample was collected on a Schirmer tear strip from each healthy volunteer. […] Samples were analyzed using a validated LC/MS/MS method, and the LLOQ was 2 ng/mL (equivalent to approximately 0.2 μg/g for a 10-mg tear sample).
Mean tear concentration data were obtained from the per protocol (PP) set and the full analysis (FAS) set. For the purpose of this study, the PP set included all healthy volunteers with the exclusion of apparent outlier values. The FAS set included all healthy volunteers who received besifloxacin, and from whom all sampling data were available (no exclusion of outlier values).

S. pneumoniae = assay: MIC of clinical trial isolates, Studies 373, 433, 434; format: cell-based; details: Streptococcus pneumoniae, isolates of studies 373, 433, 434; read-out: MIC90
Description: (§1) PFGE testing was performed per standard procedures.
(§2) The antibacterial susceptibility profile of each Visit 1 bacterial isolate was determined for besifloxacin and other antimicrobials.

H. influenzae = assay: as above; format: cell-based; details: Haemophilus influenzae, isolates of studies 373, 433, 434; read-out: MIC90
Description: as §1, §2

[5] = Visit 2 (Day 5 ± 1), primary endpoint
[6] = both sexes, human, tear fluid, topical, 37 μL of 0.6% suspension per eye, tears, single instillation 0.6% suspension, healthy volunteers, FAS
[7] = both sexes, human, tear fluid, topical, 37 μL of 0.6% suspension per eye, tears, single instillation 0.6% suspension, healthy volunteers, PP
[8] = tears, single instillation 0.6% suspension, healthy volunteers, FAS

Structure (SMILES): N[C@@H]1CCCCN(c2c(F)cc3c(=O)c(C(=O)O)cn(C4CC4)c3c2Cl)C1 [Besifloxacin, (R)-(+)-(3-amino-2,3,4,5,6,7-hexahydro-1H-azepin-1-yl)-8-chloro-1-cyclopropyl-6-fluoro-1,4,-dihydro-4-oxo-3-quinolinecarboxylic acid]
- CC25 Gyrase (S. pneumoniae DNA gyrase): 2.5 μM and 1 μg/mL
- IC50 (E. coli topoisomerase IV): 23 µM and 25.4 µM
- Clinical Resolution (2 indices), No (bacterial conjunctivitis [1]; Visit 2 (Day 5 ± 1)): 109 (54.8) n (%)
- Microbial Eradication, No (bacterial conjunctivitis [1]; Visit 2 (Day 5 ± 1)): 17 (8.5) n (%)
- Clinical Resolution (2 indices), Yes (bacterial conjunctivitis [1]; [5]): 90 (45.2) n (%)
- Microbial Eradication, Yes (bacterial conjunctivitis [1]; [5]): 182 (91.5) n (%)
- Clinical Resolution (2 indices), No (bacterial conjunctivitis [1]; Visit 3 (Day 8 or 9)): 31 (15.6) n (%)
- Clinical Resolution (2 indices), Yes (bacterial conjunctivitis [1]; Visit 3 (Day 8 or 9)): 168 (84.4) n (%)
- Microbial Eradication, No (bacterial conjunctivitis [1]; Visit 3 (Day 8 or 9)): 23 (11.6) n (%)
- Microbial Eradication, Yes (bacterial conjunctivitis [1]; Visit 3 (Day 8 or 9)): 176 (88.4) n (%)
- IC50 (E. coli DNA gyrase; E. coli enzymes): 2.3 µM and 2.54 µM
- inhibitory concentration for gyrase lower than for topoisomerase IV (E. coli DNA gyrase; E. coli enzymes): 10 fold
- catalytic inhibition and cleavable complex stimulation relative to comparators (E. coli DNA gyrase; purified E. coli DNA gyrase and topoisomerase IV): equivalent to that of the ciprofloxacin and moxifloxacin comparators
- Clinical Resolution (2 indices), No (bacterial conjunctivitis [2]; Visit 2 (Day 5 ± 1)): 105 (41.7) n (%)
- Microbial Eradication, No (bacterial conjunctivitis [2]; Visit 2 (Day 5 ± 1)): 17 (6.7) n (%)
- Clinical Resolution (2 indices), Yes (bacterial conjunctivitis [2]; [5]): 147 (58.3) n (%)
- Microbial Eradication, Yes (bacterial conjunctivitis [2]; [5]): 235 (93.3) n (%)
- Clinical Resolution (2 indices), No (bacterial conjunctivitis [2]; Visit 3 (Day 8 or 9)): 39 (15.5) n (%)
- Clinical Resolution (2 indices), Yes (bacterial conjunctivitis [2]; Visit 3 (Day 8 or 9)): 213 (84.5) n (%)
- Microbial Eradication, No (bacterial conjunctivitis [2]; Visit 3 (Day 8 or 9)): 32 (12.7) n (%)
- Microbial Eradication, Yes (bacterial conjunctivitis [2]; Visit 3 (Day 8 or 9)): 220 (87.3) n (%)
- MIC ([3]; S. pneumoniae Wild type): 0.12 µg/mL (≈ 0.305 µM)
- MIC ([3]; S. pneumoniae gyrA S81F): 0.5 µg/mL (≈ 1.27 µM)
- MIC ([3]; S. pneumoniae parC S79Y): 0.25 µg/mL (≈ 0.635 µM)
- MIC ([3]; S. pneumoniae parC S79Y + gyrA S81F): 1 µg/mL
- concentration at 24 h ([4]; both sexes, human, tear fluid, topical, 37 μL of 0.6% suspension per eye, 0.6% suspension, human tears, read-out: mean concentration in tears at 24 hours (C24h)): 1600 ± 2280 ng/g
- concentration at 24 h ([4]; both sexes, human, tear fluid, topical, 37 μL of 0.6% suspension per eye, after a single dose of 0.6% suspension, humans, read-out: concentration in tears sustained for at least 24 hours): ≥ 1600 ng/g
- Cmax [4, 6]: 610000 ± 540000 ng/g
- Tmax [4, 6]: 0.17 h
- half-life [4, 6]: 3.4 h
- Cmax [4, 7]: 811000 ng/g
- half-life [4, 7]: 3.51 h
- time of mean maximum concentration in tears after instillation ([4]; single instillation, healthy volunteers): ≤ 10 min
- AUC24 [4, 8]: 1232 µg·h/g
- t1/2 [4, 8]: 3.43 h
- AUC24 ([4]; tears, single instillation 0.6% suspension, healthy volunteers, PP): 1523 µg·h/g
- MIC90 (S. pneumoniae): 0.125 µg/mL
- MIC90 (H. influenzae): 0.06 µg/mL
